Laboratory results taken from paper PMC4841536, “Characterization of the Anti-HCV Activities of the New Cyclophilin Inhibitor STG-175” (PLoS ONE, 2016).
Several values for one entry are separate records, joined by “and”; a condition that tells them apart may be missing. Equal values may be shown once. Read-outs that look alike come from different tables or passages of the source.

Columns and labels:
[1] = tested on: subgenomic Con1 (GT1b) replicon in Huh-7 cells; assay type: cell-based, hepatitis C virus; details: for passage at which resistant variants emerged (CypI comparison): Fig 3C; for passages until development of HCV resistance, DAA alone ("instead of" comparison): compared with combination
Procedure: Huh-7 cell expressing subgenomic Con1 (GT1b) replicon were seeded in a 10 cm dish at a density of 3 × 10^5 cells per culture flask in complete DMEM (with G418) with STG-175 or selected drugs. Cells were grown until they reached 90% confluence, trypsinized and re-seeded at the same cell concentration in a new 10-cm dish with the same drug concentration. Cells were passaged 22 times in the presence of drugs. At each passage, sample of cells were collected, RNA extracted according to the manufacturer's instructions and analyzed by RT-PCR for HCV RNA levels.
(§1) Fig 3 Replicon clearance, replication rebound and resistance analyses. […] Then drugs were removed to allow viral replication rebound to occur. At each passage, samples of cells were collected, RNA extracted and analyzed by RT-PCR for HCV RNA levels. B. Emergence of resistance: Con1 replicon Huh-7 cells were passaged 22 times in the absence or presence of STG-175 or selected DAAs. At each passage, sample of cells were collected, RNA extracted and analyzed by RT-PCR for HCV RNA levels. C. […] Data are expressed as number of HCV RNA copies per cell. […] Data are expressed as mean of relative light units and calculated EC50s are presented. […] E. Degree of resistance of D320E and Y321N Con1 variants: Left panel. Wild-type (WT), D320E and D320/Y321N NS5A Con1 RNA were electroporated into Huh7.5.1 cells and replication monitored over 8 days by quantifying the levels of intracellular HCV RNA. Right panel. Same as just above except that increasing concentrations of STG-175 were added at the time of the electroporation. […] STG-175 is taken as the substance from the printed x-axis title 'STG-175 in Log nM'.
We then examined the development of resistance to STG-175. GT1b Con1 sub-genomic replicon cells were grown in the presence of STG-175 (0.25 and 1 μM), telaprevir (2.5 and 10 μM), boceprevir (2.5 and 10 μM), daclatasvir 100 pM and 1 nM) or a combination of STG-175 (0.25 μM) with either telaprevir (2.5 μM), boceprevir (2.5 μM) or daclatasvir (100 pM) for 22 successive passages. At each passage, fresh drug was added and a sample of cells was taken to quantify HCV RNA levels by RT-qPCR.

[2] = tested on: IL-2 promoter activation in Jurkat T-cell line; experiment: In vitro assay for immunosuppression: IL-2 promoter activation in engineered Jurkat T-cell line (betagalactosidase); assay type: cell-based; details: Homo sapiens; Jurkat cells activated with PMA 10 ng/mL, 24 h; read-out: IC50, inhibition of IL-2 production (immunosuppressive activity)
Procedure: IL-2 promoter activation upon T-cell stimulation was determined using an engineered Jurkat T-cell line, which expresses betagalactosidase when exposed to chemical non-specific factors like […] (PMA) and phytohematogglutinin (PHA) as described previously. DMSO or STG-175 were added together with PMA (10 ng/mL) to 1 million of Jurkat cells (triplicates). Betagalactosidase activity in cell lysates was quantified by fluorescence (460 nm) after 24 h.
(§2) Fig 1 Anti-PPIase and immunosuppressive activities of STG-175. A. Structures of cyclophilin inhibitors. Inhibition of CypA (B) and CypD (C) isomerase activities were assessed using the α-chymotrypsin-coupled assay. Each test compound was prepared at 10 concentrations (0.05–1000 nM). All solutions were equilibrated, and reactions conducted at 5°C. Reactions were initiated by mixing 95 μL reaction mix with 5 μL of the peptide to be cleaved and measuring OD405 nm at 6-sec intervals for 6 min. Data were fitted with Graphpad Prism 6.0 to obtain first-order rate constants. Enzyme catalyzed rate constants were calculated by subtracting the rate constant from uncatalyzed reactions (no CypA/D), and catalytic rate constants plotted as a function of inhibitor concentration to obtain IC50s. […] D. IL-2 promoter activation upon T-cell stimulation was determined using an engineered Jurkat T-cell line, which expresses betagalactosidase. Jurkat cells (1 million) were activated with PMA (10 ng/mL). […] The Y-axis values are expressed as percentage of activity. Data expressed as EC50s are representative of two independent experiments.
The formation of this trimolecular complex inhibits T cell proliferation by blocking the signaling pathway leading to IL-2 production upon T-cell stimulation. The immunosuppressive activity of STG-175 was evaluated by inhibition of the IL-2 production in Jurkat cells.

Human recombinant CypA = biological target: T1, Human recombinant CypA (Homo sapiens, UniProt P62937); experiment: α-chymotrypsin-coupled PPIase assay, CypA isomerase activity; assay type: biochemical; details: 5°C, 10 concentrations 0.05–1000 nM; read-out: IC50, neutralization of the isomerase activity of CypA
T1 construct: purchased Atgen
T1 sequence (P62937 whole entry): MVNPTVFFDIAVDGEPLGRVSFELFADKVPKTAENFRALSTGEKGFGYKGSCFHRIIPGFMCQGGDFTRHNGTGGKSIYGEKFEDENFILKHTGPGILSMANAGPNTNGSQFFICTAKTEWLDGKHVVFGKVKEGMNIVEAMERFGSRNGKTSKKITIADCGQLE
Procedure: Inhibition of CypA and CypD isomerase activities were quantified using a α-chymotrypsin-coupled assay adapted to a 96-well plate format. Human recombinant CypA or CypD (Atgen) was dissolved to 10 nM in PPIases buffer (50 mM Hepes, 100 mM NaCl, 1 mg/ml bovine serum albumin, 1 mg/ml α-chymotrypsin; pH 8). Succinyl-AAPF-pNA peptide substrate (Sigma) was dissolved to 3.2 mM in LiCl/trifluoroethanol. Each CypI was prepared at 10 concentrations in DMSO, then diluted into CypA/D PPIase buffer to 0.05–1000 nM. Incubations were performed at 5°C. Ninety five μL of reaction mix was added to 5 μL peptide in 96-wells and OD405 nm measured at 6-sec intervals for 6 min using a Biotek Synergy H4 plate reader. Data were fitted with Graphpad Prism 6.0 to acquire first-order rate constants, which were calculated by subtracting the rate constant from uncatalyzed reactions (no CypA/D). […]
(§3) The inhibition of the isomerase activities of CypA and CypD were measured with 10 increasing concentrations of STG-175 to quantify IC50 values.
Fig 1 Anti-PPIase and immunosuppressive activities of STG-175. […] Inhibition of CypA (B) and CypD (C) isomerase activities were assessed using the α-chymotrypsin-coupled assay. […] D. IL-2 promoter activation upon T-cell stimulation was determined using an engineered Jurkat T-cell line, which expresses betagalactosidase. […] The Y-axis values are expressed as percentage of activity. […]

Human recombinant CypD = biological target: T2, Human recombinant CypD (Homo sapiens, UniProt P30405); experiment: α-chymotrypsin-coupled PPIase assay, CypD isomerase activity; assay type: biochemical; details: 5°C, 10 concentrations 0.05–1000 nM
T2 construct: purchased Atgen
T2 sequence (P30405 30-207): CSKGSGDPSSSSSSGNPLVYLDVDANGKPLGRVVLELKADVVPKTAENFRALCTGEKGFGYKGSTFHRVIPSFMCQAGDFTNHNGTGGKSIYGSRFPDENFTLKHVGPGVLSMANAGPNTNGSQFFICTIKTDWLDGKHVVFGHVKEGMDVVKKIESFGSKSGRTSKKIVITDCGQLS
Procedure: Inhibition of CypA and CypD isomerase activities were quantified using a α-chymotrypsin-coupled assay adapted to a 96-well plate format. Human recombinant CypA or CypD (Atgen) was dissolved to 10 nM in PPIases buffer (50 mM Hepes, 100 mM NaCl, 1 mg/ml bovine serum albumin, 1 mg/ml α-chymotrypsin; pH 8). Succinyl-AAPF-pNA peptide substrate (Sigma) was dissolved to 3.2 mM in LiCl/trifluoroethanol. Each CypI was prepared at 10 concentrations in DMSO, then diluted into CypA/D PPIase buffer to 0.05–1000 nM. Incubations were performed at 5°C. Ninety five μL of reaction mix was added to 5 μL peptide in 96-wells and OD405 nm measured at 6-sec intervals for 6 min using a Biotek Synergy H4 plate reader. Data were fitted with Graphpad Prism 6.0 to acquire first-order rate constants, which were calculated by subtracting the rate constant from uncatalyzed reactions (no CypA/D). The catalytic rate constants were plotted as a function of inhibitor concentration to obtain IC50s.
as §3
as §2, with “Data were fitted with Graphpad Prism 6.0 to obtain first-order rate constants.” left out, “betagalactosidase.” for “betagalactosidase. Jurkat cells (1 million) were activated with PMA (10 ng/mL).”

[3] = tested on: HCV GT4a subgenomic replicon ED43/SG-Feo; set-up: method as in PMID 24687498; details: cited from earlier work
[4] = tested on: D320E/Y321N NS5A Con1 GT1b replicon; experiment: microbe, parasite or virus in culture; assay type: cell-based, hepatitis C virus; details: Hepatitis C virus, GT1B
Description: (§4) The GT1b subgenomic firefly luciferase reporter replicon pFK-I389/NS3–3 was provided by R. Bartenschlager. The GT1B subgenomic NS3, NS5A and NS5B mutants were created via homologous recombination using the In-Fusion HD Cloning kit (Clontech) as we described previously. […] The in vitro transcription of wild-type and mutant Con1 RNA was accomplished using the T7 MEGAscript kit (Ambion) by following the manufacturer’s instructions. In vitro-transcribed RNAs were introduced into Huh7.5.1 cells by electroporation. Trypsinized cells were washed twice and resuspended in phosphate-buffered saline (PBS) (calcium-free and magnesium-free) at 1x 10^7 cells per ml. Ten micrograms of RNA for each mutant was mixed with 0.4 mL of cells in a 4-mm cuvette, and a Bio-Rad Gene Pulser system was used to deliver a single pulse at 0.27 kV, 100 ohms, and 960 μF. Cells were then plated in 12-well dishes. RNA transfection efficiency and HCV subgenomic replication were assessed by reverse transcription-quantitative PCR (RT-qPCR) and presented as genome equivalents (GE) per microgram of total RNA as described previously. We measured by RT-qPCR the replication of wild-type, STG-175-, NS5Ai-, NS3i- and NS5Bi-resistant mutants in the presence of increasing concentrations of SGT-175, daclatasvir, telaprevir, boceprevir and sofosbuvir over a period of 8 days.
(§5) D320E and D320E/Y321N NS5A substitutions were introduced into wild-type Con1 GT1 replicon as we described previously. Con1-NS5A-D320E, and Con1-NS5A-D320E/Y321N were generated using the following forward and reverse phosphorylated (p) primer sets, respectively: (p)[…] and (p)[…], and (p)[…] and (p)[…]. PCR products were circularized with Quick T4 DNA ligase (NEB) for 5 min and transformed into NEB 10-beta competent cells. The NS5A gene was sequenced to confirm the introduced substitutions.
as §1
(§6) To determine whether the D320E and Y321N substitutions truly render HCV resistant to STG-175, they were introduced into wild-type Con1 replicon as we described previously. Introduction of the substitutions was verified by sequencing.

[5] = tested on: D320E NS5A Con1 GT1b replicon; experiment: microbe, parasite or virus in culture; assay type: cell-based, hepatitis C virus; details: Hepatitis C virus, GT1B
Description: as §4, §5, §1, §6

[6] = tested on: wild-type Con1 GT1b replicon; experiment: Electroporated Con1 RNA replication in Huh7.5.1 cells (RT-qPCR), wild-type; assay type: cell-based; details: Hepatitis C virus
Description: as §4, §1
To determine whether the D320E and Y321N substitutions truly render HCV resistant to STG-175, they were introduced into wild-type Con1 replicon as we described previously. Introduction of the substitutions was verified by sequencing. In vitro-transcribed wild-type, D320E and D320E/Y321N HCV RNAs were then electroporated into Huh7.5.1 cells and viral replication assessed by RT-qPCR and presented as GE per microgram of total RNA as we described previously. […] We then analyzed the replication of wild-type, D320E and D320E/Y321N in the presence of increasing concentrations of SGT-175 over a period of 8 days.
Fig 5 Cross-resistance analyses.

[7] = Huh-7.5.1, 192 h, read-out: EC50 D320E/Y321N NS5A
[8] = Huh-7.5.1, 192 h, read-out: EC50 D320E NS5A
[9] = Huh-7.5.1, 192 h, read-out: EC50 GT1b WT

Row | Structure (SMILES) | IC50 [2] [nM] | passage at which resistance began ([1]; 2.5 μM) [passage] | passage at which resistance began ([1]; 10 μM) [passage] | passages until development of HCV resistance, DAA alone ("instead of" comparison) [1] [passages] | EC50 [4, 7] [nM] | EC50 [5, 8] [nM] | EC50 [6, 9] [nM] | other results
1 | C/C=C/C[C@@H](C)[C@@H](O)[C@H]1C(=O)N[C@@H](CC)C(=O)N(C)[C@H](C)C(=O)N(CC)[C@@H](C(C)C)C(=O)N[C@@H](C(C)C)C(=O)N(C)[C@@H](CC(C)C)C(=O)N[C@@H](C)C(=O)N[C@H](C)C(=O)N(C)[C@@H](CC(C)C)C(=O)N(C)[C@@H](CC(C)C)C(=O)N(C)[C@@H](C(C)C)C(=O)N1C [ALV, alisporivir] | 85.7 |  |  |  |  |  |  | passage at which resistant variants emerged (CypI comparison) ([1]; 0.25 μM of drug selection): 15 passage; passage at which resistance began ([1]; 1 μM drug pressure, first account (Fig 3B)): 16 passage; passage at which resistant variants emerged (CypI comparison) ([1]; 1 μM of drug selection): 17 passage; IC50 (Human recombinant CypA): 1.7 nM; IC50 (Human recombinant CypD; read-out: IC50, neutralization of the isomerase activity of CypD): 3.4 nM
2 | C/C=C/C[C@@H](C)[C@@H](O)[C@H]1C(=O)N[C@@H](CC)C(=O)N(C)[C@H](SCCN(C)C)C(=O)N(C)[C@@H](CC(C)(C)O)C(=O)N[C@@H](C(C)C)C(=O)N(C)[C@@H](CC(C)C)C(=O)N[C@@H](C)C(=O)N[C@H](C)C(=O)N(C)[C@@H](CC(C)C)C(=O)N(C)[C@@H](CC(C)C)C(=O)N(C)[C@@H](C(C)C)C(=O)N1C [SCY-635] | 38.6 |  |  |  |  |  |  | IC50 (Human recombinant CypD; IC50, neutralization of the isomerase activity of CypD): 7.1 nM and 7.2 nM
3 | CC(C)(C)NC(=O)N[C@H](C(=O)N1C[C@H]2[C@@H]([C@H]1C(=O)NC(CC1CCC1)C(=O)C(N)=O)C2(C)C)C(C)(C)C (stereo partly drawn) [boceprevir] |  | 7 | 10 | 7 | 129 | 92.7 | 138 | activity against GT4a [3]: inactive
4 | COC(=O)N[C@H](C(=O)N1CCC[C@H]1c1nc(-c2ccc(-c3ccc(-c4c[nH]c([C@@H]5CCCN5C(=O)[C@@H](NC(=O)OC)C(C)C)n4)cc3)cc2)c[nH]1)C(C)C [daclatasvir] |  |  |  | 4 |  |  |  | passage at which resistance began ([1]; 100 pM): 4 passage; passage at which resistance began ([1]; 1 nM): 5 passage; EC50 ([4]; Huh-7.5.1, read-out: EC50 D320E/Y321N replicon): 0.039 nM; EC50 ([5]; Huh-7.5.1, read-out: EC50 D320E replicon): 0.032 nM; EC50 ([6]; Huh-7.5.1, read-out: EC50 wild-type replicon): 0.043 nM
5 | CC(C)OC(=O)[C@H](C)N[P@](=O)(OC[C@H]1O[C@@H](n2ccc(=O)[nH]c2=O)[C@](C)(F)[C@@H]1O)Oc1ccccc1 [sofosbuvir, reference compound] |  |  |  |  | 111 | 120 | 177 | 
6 | CCC[C@H](NC(=O)[C@@H]1[C@H]2CCC[C@H]2CN1C(=O)[C@@H](NC(=O)[C@@H](NC(=O)c1cnccn1)C1CCCCC1)C(C)(C)C)C(=O)C(=O)NC1CC1 [telaprevir] |  | 7 | 10 | 6 | 314 | 230 | 290 | 
